≈ marks a conversion by molar mass, not a printed value.
Assays:
Escherichia coli = assay: Antibacterial activity against Escherichia coli JM109 after 24 hrs by microbroth dilution method; assay type: functional; details: JM109, 24 h
Bacillus = assay: Antibacterial activity against Bacillus proteus ATCC 13315 after 24 hrs by microbroth dilution method; assay type: functional; details: ATCC 13315, 24 h
Pseudomonas aeruginosa = assay: Antibacterial activity against Pseudomonas aeruginosa ATCC 27853 after 24 hrs by microbroth dilution method; assay type: functional; details: ATCC 27853, 24 h
Salmonella enterica = assay: Antibacterial activity against Salmonella enterica ATCC 14028 after 24 hrs by microbroth dilution method; assay type: functional; details: ATCC 14028, 24 h
Staphylococcus aureus [1] = assay: Antibacterial activity against methicillin-resistant Staphylococcus aureus N315 after 24 hrs by microbroth dilution method; assay type: functional; details: N315, 24 h
Staphylococcus aureus [2] = assay: Antibacterial activity against Staphylococcus aureus ATCC 25923 after 24 hrs by microbroth dilution method; assay type: functional; details: ATCC 25923, 24 h
Bacillus spizizenii = assay: Antibacterial activity against Bacillus subtilis ATCC 6633 after 24 hrs by microbroth dilution method; assay type: functional; details: ATCC 6633, 24 h
Micrococcus luteus = assay: Antibacterial activity against Micrococcus luteus ATCC 4698 after 24 hrs by microbroth dilution method; assay type: functional; details: NCTC 2665, 24 h
Cyberlindnera jadinii = assay: Antifungal activity against Candida utilis ATCC 9950 after 24 hrs by microbroth dilution method; assay type: functional; details: Williopsis jadinii, ATCC 9950, 24 h
Aspergillus flavus = assay: Antifungal activity against Aspergillus flavus ATCC 204304 after 24 hrs by microbroth dilution method; assay type: functional; details: ATCC 204304, 24 h
Saccharomyces cerevisiae = assay: Antifungal activity against Saccharomyces cerevisiae ATCC 9763 after 24 hrs by microbroth dilution method; assay type: functional; details: ATCC 9763, 24 h
Candida albicans = assay: Antifungal activity against Candida albicans ATCC 10231 after 24 hrs by microbroth dilution method; assay type: functional; details: ATCC 10231, 24 h
Pichia norvegensis = assay: Antifungal activity against Candida mycoderma ATCC 9888 after 24 hrs by microbroth dilution method; assay type: functional; details: ATCC 9888, 24 h
[3] = Ionization constant, pKa of the compound by UV spectroscopic analysis; assay type: physicochemical

Row | Compound | MIC (Escherichia coli) | MIC (Bacillus) | MIC (Pseudomonas aeruginosa) | MIC (Salmonella enterica) | MIC (Staphylococcus aureus [1]) | MIC (Staphylococcus aureus [2]) | MIC (Bacillus spizizenii) | MIC (Micrococcus luteus) | MIC (Cyberlindnera jadinii) | MIC (Aspergillus flavus) | MIC (Saccharomyces cerevisiae) | MIC (Candida albicans) | MIC (Pichia norvegensis) | pKa [3]
1 | Cc1nc(N2CCCCC2)c([N+](=O)[O-])n1CC(O)CNC1CCN(c2c(F)cc3c(=O)c(C(=O)O)cn(C4CC4)c3c2Cl)C1 (centres undefined) | 32 µg/mL (≈ 50.6 µM) | 1 µg/mL (≈ 1.58 µM) | 1 µg/mL (≈ 1.58 µM) | 16 µg/mL (≈ 25.3 µM) | 2 µg/mL (≈ 3.16 µM) | 8 µg/mL (≈ 12.7 µM) | 8 µg/mL (≈ 12.7 µM) | 16 µg/mL (≈ 25.3 µM) | 2 µg/mL (≈ 3.16 µM) | 4 µg/mL (≈ 6.33 µM) | 8 µg/mL (≈ 12.7 µM) | 4 µg/mL (≈ 6.33 µM) | 8 µg/mL (≈ 12.7 µM) | 6.69
2 | Cc1nc(N2CCCCC2)c([N+](=O)[O-])n1CC(O)CN1CCN(c2cc3c(cc2F)c(=O)c(C(=O)O)cn3C2CC2)CC1 (centres undefined) | 128 µg/mL (≈ 214 µM) | 128 µg/mL (≈ 214 µM) | 1 µg/mL (≈ 1.67 µM) | 64 µg/mL (≈ 107 µM) | 32 µg/mL (≈ 53.5 µM) | 128 µg/mL (≈ 214 µM) | 32 µg/mL (≈ 53.5 µM) | 64 µg/mL (≈ 107 µM) | 32 µg/mL (≈ 53.5 µM) | 8 µg/mL (≈ 13.4 µM) | 64 µg/mL (≈ 107 µM) | 64 µg/mL (≈ 107 µM) | 64 µg/mL (≈ 107 µM) | 6.9
3 | CCn1cc(C(=O)O)c(=O)c2cc(F)c(N3CCN(CC(O)Cn4c(C)nc(N5CCCCC5)c4[N+](=O)[O-])CC3)cc21 (centres undefined) | 256 µg/mL (≈ 437 µM) | 128 µg/mL (≈ 219 µM) | 4 µg/mL (≈ 6.83 µM) | 128 µg/mL (≈ 219 µM) | 64 µg/mL (≈ 109 µM) | 64 µg/mL (≈ 109 µM) | 128 µg/mL (≈ 219 µM) | 128 µg/mL (≈ 219 µM) | 32 µg/mL (≈ 54.6 µM) | 32 µg/mL (≈ 54.6 µM) | 32 µg/mL (≈ 54.6 µM) | 32 µg/mL (≈ 54.6 µM) | 128 µg/mL (≈ 219 µM) | 6.75
4 | Cc1nc(N2CCOCC2)c([N+](=O)[O-])n1CC(O)CN1CCN(c2cc3c(cc2F)c(=O)c(C(=O)O)cn3C2CC2)CC1 (centres undefined) | 16 µg/mL (≈ 26.7 µM) | 4 µg/mL (≈ 6.67 µM) | 0.5 µg/mL (≈ 0.834 µM) | 8 µg/mL (≈ 13.3 µM) | 4 µg/mL (≈ 6.67 µM) | 16 µg/mL (≈ 26.7 µM) | 8 µg/mL (≈ 13.3 µM) | 16 µg/mL (≈ 26.7 µM) | 4 µg/mL (≈ 6.67 µM) | 8 µg/mL (≈ 13.3 µM) | 16 µg/mL (≈ 26.7 µM) | 32 µg/mL (≈ 53.4 µM) | 128 µg/mL (≈ 213 µM) | 6.77
5 | O=C(O)c1cn(C2CC2)c2cc(N3CCN(CC4CO4)CC3)c(F)cc2c1=O (centres undefined) | 1 µg/mL (≈ 2.58 µM) | 4 µg/mL (≈ 10.3 µM) | 2 µg/mL (≈ 5.16 µM) | 2 µg/mL (≈ 5.16 µM) | 1 µg/mL (≈ 2.58 µM) | 4 µg/mL (≈ 10.3 µM) | 8 µg/mL (≈ 20.6 µM) | 2 µg/mL (≈ 5.16 µM) | 2 µg/mL (≈ 5.16 µM) | 1 µg/mL (≈ 2.58 µM) | 1 µg/mL (≈ 2.58 µM) | 2 µg/mL (≈ 5.16 µM) | 1 µg/mL (≈ 2.58 µM) | 
6 | CCn1cc(C(=O)O)c(=O)c2cc(F)c(N3CCN(CC(O)Cn4c([N+](=O)[O-])cnc4C)CC3)cc21 (centres undefined) | 32 µg/mL (≈ 63.7 µM) | 16 µg/mL (≈ 31.8 µM) | 2 µg/mL (≈ 3.98 µM) | 16 µg/mL (≈ 31.8 µM) | 4 µg/mL (≈ 7.96 µM) | 16 µg/mL (≈ 31.8 µM) | 16 µg/mL (≈ 31.8 µM) | 16 µg/mL (≈ 31.8 µM) | 64 µg/mL (≈ 127 µM) | 32 µg/mL (≈ 63.7 µM) | 32 µg/mL (≈ 63.7 µM) | 128 µg/mL (≈ 255 µM) | 64 µg/mL (≈ 127 µM) | 6.57
7 | O=C(O)c1cn(C2CC2)c2c(Cl)c(NC3CCN(CC4CO4)C3)c(F)cc2c1=O (centres undefined) | 0.5 µg/mL (≈ 1.19 µM) | 0.25 µg/mL (≈ 0.593 µM) | 0.5 µg/mL (≈ 1.19 µM) | 1 µg/mL (≈ 2.37 µM) | 2 µg/mL (≈ 4.74 µM) | 0.5 µg/mL (≈ 1.19 µM) | 0.25 µg/mL (≈ 0.593 µM) | 0.25 µg/mL (≈ 0.593 µM) | 0.5 µg/mL (≈ 1.19 µM) | 0.5 µg/mL (≈ 1.19 µM) | 0.25 µg/mL (≈ 0.593 µM) | 2 µg/mL (≈ 4.74 µM) | 2 µg/mL (≈ 4.74 µM) | 
8 | CCn1cc(C(=O)O)c(=O)c2cc(F)c(N3CCN(CC(O)Cn4c(C)nc(N5CCOCC5)c4[N+](=O)[O-])CC3)cc21 (centres undefined) | 64 µg/mL (≈ 109 µM) | 32 µg/mL (≈ 54.5 µM) | 2 µg/mL (≈ 3.4 µM) | 32 µg/mL (≈ 54.5 µM) | 4 µg/mL (≈ 6.81 µM) | 32 µg/mL (≈ 54.5 µM) | 16 µg/mL (≈ 27.2 µM) | 8 µg/mL (≈ 13.6 µM) | 16 µg/mL (≈ 27.2 µM) | 16 µg/mL (≈ 27.2 µM) | 16 µg/mL (≈ 27.2 µM) | 16 µg/mL (≈ 27.2 µM) | 64 µg/mL (≈ 109 µM) | 6.64
9 | CCn1cc(C(=O)O)c(=O)c2cc(F)c(N3CCN(CC(O)Cn4c(C)nc(N5CCCC5)c4[N+](=O)[O-])CC3)cc21 (centres undefined) | 128 µg/mL (≈ 224 µM) | 64 µg/mL (≈ 112 µM) | 4 µg/mL (≈ 7 µM) | 64 µg/mL (≈ 112 µM) | 32 µg/mL (≈ 56 µM) | 64 µg/mL (≈ 112 µM) | 64 µg/mL (≈ 112 µM) | 64 µg/mL (≈ 112 µM) | 32 µg/mL (≈ 56 µM) | 16 µg/mL (≈ 28 µM) | 8 µg/mL (≈ 14 µM) | 32 µg/mL (≈ 56 µM) | 16 µg/mL (≈ 28 µM) | 6.68

From ChEMBL document CHEMBL3603734, “Design and biological evaluation of novel quinolone-based metronidazole derivatives as potent Cu(2+) mediated DNA-targeting antibacterial agents” (Bioorg Med Chem Lett, 2015)
